Patent US20260125382A1, “COMPOUNDS FOR INHIBITING OR DEGRADING CDK2 AND/OR CDK9 AND MEDICINAL USE THEREOF” (KOREA RESEARCH INSTITUTE OF CHEMICAL TECHNOLOGY, priority 2022, published 2026)

Assays:
CDK9 = molecular target: T1, CDK9 (Homo sapiens, UniProt P50750); experiment: CDK protein degradation activity (Western blotting), CDK9; format: cell-based; conditions: MDA-MB-231 cells, 16 hours, Western blot
T1 construct: endogenous in cells; host or cells: MDA-MB-231
Protocol: (§1) In order to evaluate the CDK protein degradation activity of the compounds according to the present invention, the following experiment was conducted.
(§2) MDA-MB-231 cells were seeded at 5×10^5 cells per well in a 6-well plate. The next day, the compounds were treated in each well to achieve final concentrations of 100 nM, 1 μM, and 10 μM. For the control group, an equal amount of DMSO was treated in the well as the compound. After 16 hours of treatment, cells were collected, and cell lysates were prepared using Triton X-100 lysis buffer (50 mM HEPES, pH 7.5, 40 mM NaCl, 1% Triton X-100, 1 mM EDTA, 1 mM EGTA, 10 mM pyrophosphate, 10 mM β-glycerophosphate, 50 mM NaF, 1 mM NaVO4, protease inhibitor). Cell lysates were quantified and separated by size using sodium dodecyl sulfate-polyacrylamide gel electrophoresis (SDS-PAGE). Western blotting was then performed using antibodies that recognize CDK2, CDK9, and tubulin, respectively. The results obtained by Western blotting were quantitatively analyzed using the ImageJ program, and representative images according to the experimental results are shown in FIG. 1.

CDK2 = molecular target: T2, CDK2 (Homo sapiens, UniProt P24941); experiment: CDK protein degradation activity (Western blotting), CDK2; format: cell-based; conditions: MDA-MB-231 cells, 16 hours, Western blot
T2 construct: endogenous in cells; host or cells: MDA-MB-231
Protocol: as §1, §2

T1 sequence (P50750 whole entry): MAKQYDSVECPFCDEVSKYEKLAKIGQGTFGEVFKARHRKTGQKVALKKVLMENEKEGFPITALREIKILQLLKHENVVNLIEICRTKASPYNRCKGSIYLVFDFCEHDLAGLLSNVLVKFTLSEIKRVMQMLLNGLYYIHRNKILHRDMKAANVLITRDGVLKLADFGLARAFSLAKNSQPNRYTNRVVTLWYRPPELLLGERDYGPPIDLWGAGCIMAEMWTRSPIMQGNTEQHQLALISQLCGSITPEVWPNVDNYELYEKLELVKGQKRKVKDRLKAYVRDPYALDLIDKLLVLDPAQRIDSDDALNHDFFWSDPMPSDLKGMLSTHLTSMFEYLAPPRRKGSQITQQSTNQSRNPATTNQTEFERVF

Compound	Enzyme degradation CDK9 (% remaining) @ 0.1 μM (CDK9)	Enzyme degradation CDK9 (% remaining) @ 1 μM (CDK9)	Enzyme degradation CDK9 (% remaining) @ 10 μM (CDK9)	Enzyme degradation CDK2 (% remaining) @ 0.1 μM (CDK2)	Enzyme degradation CDK2 (% remaining) @ 1 μM (CDK2)	Enzyme degradation CDK2 (% remaining) @ 10 μM (CDK2)
Cc1cccc(C(=O)N[C@H]2C[C@@H](n3cnc4c(NC5CCN(CCC6CCN(C(=O)CNc7ccc8c(c7)C(=O)N([C@H]7CCC(=O)NC7=O)C8=O)CC6)CC5)ncnc43)C2)n1 (racemic) [Compound 33, N-((1s,3s)-3-(6-((1-(2-(1-((2-(2,6-dioxopiperidin-3-yl)-1,3-dioxoisoindolin-5-yl)glycyl)piperidin-4-yl)ethyl)piperidin-4-yl)amino)-9H-purin-9-yl)cyclobutyl)-6-methylpicolinamide]	0/0/0%	0/0/0%	0/0/0%	40%	30%	50%
O=C1CC[C@H](N2C(=O)c3ccc(NCC(=O)N4CCC5(CC4)CC(N4CCC(c6ccc(Nc7ncnc8c7ncn8[C@H]7C[C@@H](NC(=O)Cc8ccccc8)C7)cc6)CC4)C5)cc3C2=O)C(=O)N1 (racemic) [Compound 296, N-((1s,3s)-3-(6-((4-(1-(7-((2-(2,6-dioxopiperidin-3-yl)-1,3-dioxoisoindolin-5-yl)glycyl)-7-azaspiro[3.5]nonan-2-yl)piperidin-4-yl)phenyl)amino)-9H-purin-9-yl)cyclobutyl)-2-phenylacetamide]	0/0/0%	0/0/0%	0/0/0%	20%	0%	0%
Cc1cccc(C(=O)N[C@H]2C[C@@H](n3cnc4c(NCCC5CCN(CC6CCN(C(=O)CCNc7ccc8c(c7)C(=O)N([C@H]7CCC(=O)NC7=O)C8=O)CC6)CC5)ncnc43)C2)n1 (racemic) [Compound 310, N-((1s,3s)-3-(6-((2-(1-((1-(3-((2-(2,6-dioxopiperidin-3-yl)-1,3-dioxoisoindolin-5-yl)amino)propanoyl)piperidin-4-yl)methyl)piperidin-4-yl)ethyl)amino)-9H-purin-9-yl)cyclobutyl)-6-methylpicolinamide]	40%	0%	0%	100%	70%	100%
Cc1cccc(C(=O)N[C@H]2C[C@@H](n3cnc4c(NC5CCN(CCCCCCNc6ccc7c(c6)C(=O)N([C@H]6CCC(=O)NC6=O)C7=O)CC5)ncnc43)C2)n1 [Compound 17, N-((1s,3s)-3-(6-((1-(6-((2-(2,6-dioxopiperidin-3-yl)-1,3-dioxoisoindolin-5-yl)amino)hexyl)piperidin-4-yl)amino)-9H-purin-9-yl)cyclobutyl)-6-methylpicolinamide]	10%	0%	0%	90%	100%	50%

More lines, now with the values ahead:

Enzyme degradation CDK9 (% remaining) @ 0.1 μM (CDK9)	Enzyme degradation CDK9 (% remaining) @ 1 μM (CDK9)	Enzyme degradation CDK9 (% remaining) @ 10 μM (CDK9)	Enzyme degradation CDK2 (% remaining) @ 0.1 μM (CDK2)	Enzyme degradation CDK2 (% remaining) @ 1 μM (CDK2)	Enzyme degradation CDK2 (% remaining) @ 10 μM (CDK2)	Compound
10/10/10%	10/10/10%	10/10/10%	20/20/20%	20/20/20%	20/20/20%	2,6-dichloro-N-((1s,3s)-3-(6-((4-(4-((4-(1-(2-(2,6-dioxopiperidin-3-yl)-1,3-dioxoisoindolin-5-yl)azetidin-3-carbonyl)piperazin-1-yl)methyl)piperidin-1-yl)phenyl)amino)-9H-purin-9-yl)cyclobutyl)benzamide [Compound 473]
0/0/0%	0/0/0%	0/0/0%	60%	60%	70%	Cc1cccc(C(=O)N[C@H]2C[C@@H](n3cnc4c(NC5CCN(CCCN6CCN(c7ccc8c(c7)C(=O)N([C@H]7CCC(=O)NC7=O)C8=O)CC6)CC5)ncnc43)C2)n1 (racemic) [Compound 41, N-((1s,3s)-3-(6-((1-(3-(4-(2-(2,6-dioxopiperidin-3-yl)-1,3-dioxoisoindolin-5-yl)piperazin-1-yl)propyl)piperidin-4-yl)amino)-9H-purin-9-yl)cyclobutyl)-6-methylpicolinamide]
0/0/0%	0/0/0%	0/0/0%	30/30/30%	30/30/30%	30/30/30%	O=C1CC[C@H](N2C(=O)c3ccc(NCC(=O)N4CCC(CCCN5CCN(c6ccc(Nc7ncnc8c7ncn8[C@H]7C[C@@H](NC(=O)Cc8ccccc8)C7)cc6)CC5)CC4)cc3C2=O)C(=O)N1 (racemic) [Compound 255, N-((1s,3s)-3-(6-((4-(4-(3-(1-((2-(2,6-dioxopiperidin-3-yl)-1,3-dioxoisoindolin-5-yl)glycyl)piperidin-4-yl)propyl)piperazin-1-yl)phenyl)amino)-9H-purin-9-yl)cyclobutyl)-2-phenylacetamide]
0/0/0%	0/0/0%	0/0/0%	10/10/10%	10/10/10%	10/10/10%	N#Cc1cccc(C(=O)N[C@H]2C[C@@H](n3cnc4c(Nc5ccc(N6CCN(CC7CCN(c8ccc9nnn([C@H]%10CCC(=O)NC%10=O)c(=O)c9c8)CC7)CC6)cc5)ncnc43)C2)n1 (racemic) [Compound 418, 6-cyano-N-((1s,3s)-3-(6-((4-(4-((1-(3-(2,6-dioxopiperidin-3-yl)-4-oxo-3,4-dihydrobenzo[d][1,2,3]triazin-6-yl)piperidin-4-yl)methyl)piperazin-1-yl)phenyl)amino)-9H-purin-9-yl)cyclobutyl)picolinamide]
0/0/0%	0/0/0%	0/0/0%	20%	20%	30%	Cc1cccc(C(=O)N[C@H]2C[C@@H](n3cnc4c(NC5CCN(CC6CCN(C(=O)CNc7ccc8c(c7)C(=O)N([C@H]7CCC(=O)NC7=O)C8=O)CC6)CC5)ncnc43)C2)n1 [Compound 25, N-((1s,3s)-3-(6-((1-((1-((2-(2,6-dioxopiperidin-3-yl)-1,3-dioxoisoindolin-5-yl)glycyl)piperidin-4-yl)methyl)piperidin-4-yl)amino)-9H-purin-9-yl)cyclobutyl)-6-methylpicolinamide]
